Test results published in patent publication US20200085868A1, “Method For Treating Cancer” (China Medical University Hospital, priority 2018, published 2020).
Entries after “also recorded” stand apart in the source; their conditions may differ.

Assays:
Type in all cases: cell-based
[1] = test system: HLA-G expression of the human ovarian cancer cell line SKOV3; assay: HLA-G expression of tumor cells treated with chemotherapy drug, flow cytometry; conditions: SKOV3, carboplatin 20 μM, 48 hours; control 14.69%
Experimental: (§1) The human ovarian cancer cell line SKOV3 is cultured in McCoy's 5A culture medium containing 10% FBS.
(§2) First, the human breast cancer cell line MDA-MB-231, the human malignant brain tumor cell line DBTRG, the human pancreatic cancer cell line AsPC1 and the human ovarian cancer cell line SKOV3 are seeded in a 6-well plate at a density of 2×10^5 cells/well. The cells are subsequently incubated for 24 hours. […] In a control, the tumor cells are untreated.
(§3) Please refer to FIGS. 2A, 2B, 2C, 2D and 2E, which are analytical results of flow cytometry showing a HLA-G expression of tumor cells treated with a chemotherapy drug. FIG. 2A is analytical result of flow cytometry of the human breast cancer cell line MDA-MB-231. FIG. 2B is analytical result of flow cytometry of the human malignant brain tumor cell line DBTRG. FIG. 2C is analytical result of flow cytometry of the human pancreatic cancer cell line AsPC1. FIG. 2D is analytical result of flow cytometry of the human ovarian cancer cell line SKOV3. FIG. 2E is a statistical chart of FIGS. 2A, 2B, 2C and 2D.

[2] = test system: human ovarian cancer cell line SKOV3; assay: Tumor cell death (cytotoxicity), Annexin V-FITC and PI staining, flow cytometry; conditions: group 1: chemotherapy drug alone, carboplatin 20 μM; control less than 10%
Experimental: (§4) First, the human breast cancer cell line MDA-MB-231, the human malignant brain tumor cell line DBTRG, the human pancreatic cancer cell line AsPC1 and the human ovarian cancer cell line SKOV3 are seeded in a 12-well plate at a density of 1×10^5 cells/well. The cells are subsequently incubated for 24 hours. Each type of the tumor cells is divided into six groups. In a control, the tumor cells are untreated. In a group 1, the tumor cells are treated with the chemotherapy drug. In a group 2, the tumor cells are treated with the parental NK-92 cell line. In a group 3, the tumor cells are treated with the parental NK-92 cell line and the chemotherapy drug. In the groups 2 and 3, the number of the parental NK-92 cell line treated is 1×10^5 cells. In a group 4, the tumor cells are treated with the chimeric antigen receptor expressing cell of Example 1. […] The treated cells are stained with Annexin V-FITC and propidium iodide (PI), and the apoptosis and the death of the tumor cells are detected by the flow cytometry. The sum of the percentage of cells stained with Annexin V-FITC and/or PI (that is the percentage of cells in the first quadrant, the second quadrant, and the fourth quadrant of the bivariate flow cytometry scatter plot) are calculated to obtain the cytotoxicity. The results of the cytotoxicity are counted after the three independent trials in each group. […]

[3] = test system: HLA-G expression level on the plasma membrane of the human ovarian cancer cell line SKOV3; assay: HLA-G expression level of tumor cells treated with chemotherapy drug, immunofluorescence staining assay; conditions: SKOV3, carboplatin 20 μM, 48 hours, vs untreated control
Experimental: (§5) To investigate effect of the treatment of the chemotherapy drug on the tumor cells, the tumor cells are treated with the chemotherapy drug, and then detecting the HLA-G expression level of the tumor cells.
(§6) The tumor cells used are human breast cancer cell line MDA-MB-231, human malignant brain tumor cell line DBTRG-05MG (hereinafter referred to as DBTRG), human pancreatic cancer cell line AsPC1, and human ovarian cancer cell line SKOV3. The tumor cell lines used are all purchased from the American Type Culture Collection (ATCC). The human breast cancer cell line MDA-MB-231 is a triple-negative breast cancer cell line, that is, the hormone receptor (ER, PR) and HER-2 receptor thereof are negative, and the human breast cancer cell line MDA-MB-231 is cultured in RPMI culture medium containing 10% fetal bovine serum (FBS). The human malignant brain tumor cell line DBTRG is cultured in DMEM culture medium containing 10% FBS. […]
(§7) First, the human breast cancer cell line MDA-MB-231, the human malignant brain tumor cell line DBTRG, the human pancreatic cancer cell line AsPC1 and the human ovarian cancer cell line SKOV3 are seeded in a 6-well plate at a density of 2×10^5 cells/well. […] Then, the HLA-G expression level of the tumor cells are detected by immunofluorescence staining assay and flow cytometry.

[4] = test system: human breast cancer cell line MDA-MB-231; assay: Tumor cell death (cytotoxicity), Annexin V-FITC and PI staining, flow cytometry; conditions: group 1: chemotherapy drug alone, doxorubicin 200 nM; control about 10%
Experimental: (§8) The cells are subsequently incubated for 24 hours. […] In a control, the tumor cells are untreated.
as §8, §8

[5] = test system: HLA-G expression of the human breast cancer cell line MDA-MB-231; assay: HLA-G expression of tumor cells treated with chemotherapy drug, flow cytometry; conditions: MDA-MB-231, doxorubicin 200 nM, 48 hours; control 12.27%
Experimental: as §5, §6, §7

[6] = test system: HLA-G expression level on the plasma membrane of the human breast cancer cell line MDA-MB-231; assay: HLA-G expression level of tumor cells treated with chemotherapy drug, immunofluorescence staining assay; conditions: MDA-MB-231, doxorubicin 200 nM, 48 hours, vs untreated control
Experimental: as §5, §6, §7

[7] = test system: HLA-G expression of the human pancreatic cancer cell line AsPC1; assay: HLA-G expression of tumor cells treated with chemotherapy drug, flow cytometry; conditions: AsPC1, gemcitabine 20 μM, 48 hours; control 13.18%
Experimental: as §1, §2, §3

[8] = test system: human pancreatic cancer cell line AsPC1; assay: Tumor cell death (cytotoxicity), Annexin V-FITC and PI staining, flow cytometry; conditions: group 1: chemotherapy drug alone, gemcitabine 20 μM
Experimental: as §4

[9] = test system: HLA-G expression of the human malignant brain tumor cell line DBTRG; assay: HLA-G expression of tumor cells treated with chemotherapy drug, flow cytometry; conditions: temozolomide 80 μg/mL, 48 hours, control 14.01%
Experimental: as §5, §6, §7

## N.N.O=C([O-])C1(C(=O)[O-])CCC1.[Pt+2] [carboplatin]
[1]
  mean fluorescence intensity (MFI) of HLA-G: 38.58%
[2]
  death rate of SKOV3: increased, but there is no statistically significant difference compared to the control; also recorded: comparable to that of the control
[3]
  HLA-G expression level on the plasma membrane: increase

## COc1cccc2c1C(=O)c1c(O)c3c(c(O)c1C2=O)C[C@@](O)(C(=O)CO)C[C@@H]3O[C@H]1C[C@H](N)[C@H](O)[C@H](C)O1 [doxorubicin]
[4]
  death rate of MDA-MB-231: increased, but there is no statistically significant difference compared to the control
[5]
  mean fluorescence intensity (MFI) of HLA-G: 64.45%
[6]
  HLA-G expression level on the plasma membrane: increase

## Nc1ccn([C@@H]2O[C@H](CO)[C@@H](O)C2(F)F)c(=O)n1 [gemcitabine]
[7]
  mean fluorescence intensity (MFI) of HLA-G: 41.44%
[8]
  death rate of AsPC1: increased, but there is no statistically significant difference compared to the control; also recorded: comparable to that of the control

## Cn1nnc2c(C(N)=O)ncn2c1=O [temozolomide]
[9]
  mean fluorescence intensity (MFI) of HLA-G: 22.33%
